The source of these data is US4387105A, “Methods of treating atherosclerosis with dialkylureas and dialkylthioureas” (priority 1982, dated 1983).

The target of test [1] is T1, fatty acyl CoA:cholesterol acyl transferase (ACAT) (Rattus norvegicus, UniProt O70536).
T1 construct: The supernatant, containing the microsomal fraction, served as the source of the cholesterol-esterifying enzyme; from tissue; host or cells: rat adrenals (1000 x g supernatant containing the microsomal fraction)
T1 sequence (O70536 1-545): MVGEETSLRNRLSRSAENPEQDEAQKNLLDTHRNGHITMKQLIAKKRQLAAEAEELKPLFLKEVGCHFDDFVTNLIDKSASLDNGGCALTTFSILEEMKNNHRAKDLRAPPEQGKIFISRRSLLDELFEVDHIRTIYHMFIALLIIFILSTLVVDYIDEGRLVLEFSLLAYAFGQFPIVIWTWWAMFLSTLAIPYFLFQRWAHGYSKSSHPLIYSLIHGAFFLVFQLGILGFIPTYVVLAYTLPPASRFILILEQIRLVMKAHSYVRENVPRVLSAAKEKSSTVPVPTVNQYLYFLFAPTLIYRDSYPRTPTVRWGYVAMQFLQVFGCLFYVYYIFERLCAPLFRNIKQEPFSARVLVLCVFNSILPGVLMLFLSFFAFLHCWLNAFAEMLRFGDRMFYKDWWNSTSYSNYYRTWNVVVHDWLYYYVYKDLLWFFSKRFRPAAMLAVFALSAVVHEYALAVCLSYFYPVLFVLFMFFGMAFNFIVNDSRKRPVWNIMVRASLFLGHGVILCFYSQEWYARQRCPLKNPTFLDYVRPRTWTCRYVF
The test is described as follows: Inhibition of ACAT in rat adrenal microsomal supernatant (14C-oleoyl CoA, cholesteryl ester counted). The note with it: vs control without compound. In kind it is biochemical. Details: dose or concentration left out as unconfirmed. The protocol: The compounds of the present invention were assayed for two types of biological activity related to their potential use as antiatherosclerotic agents. Compounds were tested in vitro for the ability to inhibit the enzyme fatty acyl CoA:cholesterol acyl transferase (ACAT) and in vivo for serum hypolipidemic activity as measured by their ability to inhibit lipid absorption in rats. The compounds were tested for their ability to inhibit ACAT according to the following procedure:
Rat adrenals were homogenized in 0.2 M monobasic potassium phosphate buffer, pH 7.4, and centrifuged at 1000 times gravity for 15 minutes at 5° C. The supernatant, containing the microsomal fraction, served as the source of the cholesterol-esterifying enzyme, fatty acyl CoA:cholesterol acyl transferase (ACAT). A mixture comprising 50 parts of adrenal supernatant, 10 parts of albumin (BSA) (50 mg./ml.), 3 parts of test compound (final concentration […].) and 500 parts of buffer was preincubated at 37° C. for 10 minutes. After treatment with 20 parts of oleoyl CoA(^14 C-[…]) the mixture was incubated at 37° C. for 10 minutes. A control mixture, omitting the test compound, was prepared and treated in the same manner. The lipids from the incubation mixture were extracted into an organic solvent and separated by thin-layer chromatography. The cholesteryl ester fraction was counted in a scintillation counter. This procedure is a modification of that described by Hashimoto, et al., Life Scie., 12 (Part II), 1-12 (1973).

For another test, the system named is cholesterol absorption. The note with it: po, 0.03 % of diet, 336 h.

Experimental for cholesterol absorption: Inhibition of cholesterol absorption was determined by feeding male Sprague-Dawley rats, weighing 150-170 g., a 1% cholesterol:0.5% cholic acid diet for 2 weeks. The diet also contained compounds being tested at a dose of 0.03% of the diet. Control rats were fed the same diet without any compound. At the end of the test the rats were sacrificed by decapitation. […] Livers are removed, a 0.4 g sample is taken from the center of the large lobe, and the sample is subjected to saponification using 25% saturated potassium hydroxide in ethanol. The resulting neutral sterols are extracted with petroleum ether and extract analyzed for cholesterol. The effectiveness of the compound in inhibiting cholesterol absorption is measured by the lowering of either serum cholesterol or liver cholesterol relative the values for control rats.

Broadly, the % Inhibition is how much of the control response was suppressed. For `CCCCN(CCCC)C(=O)Nc1cc(Cl)cc(Cl)c1` [1,1-Di-(n-butyl)-3-(3,5-dichlorophenyl)urea], the “% Inhibition” value in test [1] is 79.3%. Besides, the “Result (inhibition of cholesterol absorption: lowering of either serum cholesterol or liver cholesterol relative to control rats)” value with cholesterol absorption is listed as “Active”.
On the same counts, the results for `Cc1ccc(NC(=O)N(CCC(C)C)CCC(C)C)c(C)c1` [1,1-Di-(n-isopentyl)-3-(2,4-dimethylphenyl)urea] are 88.7% and “Active”.
`CCCCCCCCCCN(CCCCCCCCCC)C(=O)Nc1ccc(C)cc1C` [1,1-Di-(n-decyl)-3-(2,4-dimethylphenyl)urea]: the “% Inhibition” value in test [1] is listed as 64.0%. Moreover, the “Result (inhibition of cholesterol absorption: lowering of either serum cholesterol or liver cholesterol relative to control rats)” value in the test with cholesterol absorption was “Active”.
The corresponding values for `CCCCCCCCN(CCCCCCCC)C(=O)Nc1ccc(C)cc1C` [1,1-Di-(n-octyl)-3-(2,4-dimethylphenyl)urea] are 88.6% and “Active”.
On the same counts, the results for `CCCCN(CCCC)C(=O)Nc1cccc(Cl)c1C` [1,1-Di-(n-butyl)-3-(3-chloro-2-methylphenyl)urea] are 80.2% and “Active”.
On to `CCCCN(CCCC)C(=O)Nc1cc(C)ccc1C` [1,1-Di-(n-butyl)-3-(2,5-dimethylphenyl)urea], for which the “% Inhibition” value in test [1] came to 96.1%.
On the same count and under the same terms, the result for `CCCCCCCCCCCN(CCCCCCCCCCC)C(=O)Nc1ccc(C)cc1C` [1,1-Di-(n-undecyl)-3-(2,4-dimethylphenyl)urea] reads 48.9%; that for `CCCCN(CCCC)C(=O)Nc1cccc(Br)c1` [1,1-di-(n-butyl)-3-(3-bromophenyl)urea, 1,1-Di(n-butyl)-3-(3-bromophenyl)urea], 86.0%; that for `CCCCN(CCCC)C(=O)Nc1ccc([N+](=O)[O-])cc1Cl` [1,1-Di-(n-butyl)-3-(2-chloro-4-nitrophenyl)urea], 86.7%.
On the same count and under the same terms, the result for `CCCCN(CCCC)C(=O)Nc1cccc(Cl)c1` [1,1-di-(n-butyl)-3-(3-chlorophenyl)urea, 1,1-Di-(n-butyl)-3-(3-chlorophenyl)urea] reads 88.3%.
As for `CCCCN(CCCC)C(=O)Nc1cccc(Cl)c1Cl` [1,1-Di-(n-butyl)-3-(2,3-dichlorophenyl)urea], the “% Inhibition” value in test [1] is on record as 71.8%.
For the molecule `CCCCN(CCCC)C(=O)Nc1ccc(OC)cc1` [1,1-di-(n-butyl)-3-(4-methoxyphenyl)urea, 1,1-Di-(n-butyl)-3-(4-methoxyphenyl)urea], the “% Inhibition” value in test [1] was 58.7%.
Still for that read-out and setting: to `CCCCN(CCCC)C(=O)Nc1cccc(OC)c1` [1,1-di-(n-butyl)-3-(3-methoxyphenyl)urea] belongs 77.1%; to `CCCCN(CCCC)C(=O)Nc1cccc(C(F)(F)F)c1` [1,1-Di-(n-butyl)-3-(3-trifluoromethylphenyl)urea], 75.0%; to `CCCCN(CCCC)C(=O)Nc1cccc(C(C)=O)c1` [1,1-di-(n-butyl)-3-(3-acetylphenyl)urea, 1,1-Di-(n-butyl)-3-(3-acetylphenyl)urea], 50.9%.
Still for that read-out and setting: to `CCCCN(CCCC)C(=O)Nc1ccc(OCC)cc1` [1,1-di-(n-butyl)-3-(4-ethoxyphenyl)urea, 1,1-Di-(n-butyl)-3-(4-ethoxyphenyl)urea] belongs 78.6%.
Take `Cc1ccc(NC(=O)N(CCC(C)CC(C)(C)C)CCC(C)CC(C)(C)C)c(C)c1` (stereo not shown) [1,1-di-(3,5,5-trimethylhexyl)-3-(2,4-dimethylphenyl)urea]: in test [1], the “% Inhibition” value is listed as 90.4%. Further, the “Result (inhibition of cholesterol absorption: lowering of either serum cholesterol or liver cholesterol relative to control rats)” value in the test on cholesterol absorption is “Active”.
Regarding `Cc1cccc(C)c1NC(=O)N(CC(C)C)CC(C)C` [1,1-di-(isobutyl)-3-(2,6-dimethylphenyl)urea], the “% Inhibition” value in test [1] came to 41.2%.
Take `CCCCN(CCCC)C(=O)Nc1cc(C)cc(C)c1` [1,1-Di-(n-butyl)-3-(3,5-dimethylphenyl)urea]: the “% Inhibition” value in test [1] is 83.5%. Besides, in the test on cholesterol absorption, the “Result (inhibition of cholesterol absorption: lowering of either serum cholesterol or liver cholesterol relative to control rats)” value is “Active”.
Turning to `CCCCN(CCCC)C(=O)Nc1ccc(F)cc1` [1,1-di-(n-butyl)-3-(4-fluorophenyl)urea, 1,1-Di-(n-butyl)-3-(4-fluorophenyl)urea], in test [1], the “% Inhibition” value came out at 55.9%.
With `CCCCN(CCCC)C(=O)Nc1ccc(C(C)=O)cc1` [1,1-di-(n-butyl)-3-(4-acetylphenyl)urea, 1,1-Di-(n-butyl)-3-(4-acetylphenyl)urea], the “% Inhibition” value in test [1] is recorded as 55.1%.
`CCCCc1ccc(NC(=O)N(CCCC)CCCC)cc1` [1,1-di-(n-butyl)-3-(4-n-butylphenyl)urea, 1,1-Di-(n-butyl)-3-(4-n-butylphenyl)urea]: the “% Inhibition” value in test [1] stood at 93.5%. Further, the “Result (inhibition of cholesterol absorption: lowering of either serum cholesterol or liver cholesterol relative to control rats)” value in the test on cholesterol absorption is “Active”.
With `CCCCN(CCCC)C(=O)Nc1cccc(SC)c1` [1,1-Di-(n-butyl)-3-(3-methylthiophenyl)urea], the “% Inhibition” value in test [1] was 84.7%.
For the molecule `Cc1ccc(NC(=O)N(C2CCCC2)C2CCCC2)c(C)c1` [1,1-Di-(cyclopentyl)-3-(2,4-dimethylphenyl)urea], the “% Inhibition” value in test [1] was 90.4%.
On the same count and under the same terms, the result for `CCCCC(CC)CN(CC(CC)CCCC)C(=O)Nc1ccc(C)cc1C` (stereo not shown) [1,1-di-(2-ethylhexyl)-3-(2,4-dimethylphenyl)urea] reads 86.2%; that for `CCCCCCCN(CCCCCCC)C(=O)Nc1ccc(C)cc1C` [1,1-Di-(n-heptyl)-3-(2,4-dimethylphenyl)urea], 91.1%; that for `CCCCN(CCCC)C(=O)Nc1ccc(Cl)c(C(F)(F)F)c1` [1,1-Di-(n-butyl)-3-(4-chloro-3-trifluoromethylphenyl)urea], 87.3%.
The same measure, in the same setting: the result for “1,1-di-(n-butyl)-3-(2,3-dibenzophenyl)urea” reads 85.1%.
For `CC(C)CN(CC(C)C)C(=O)Nc1ccccc1Cl` [1,1-di-(isobutyl)-3-(2-chlorophenyl)urea], the “% Inhibition” value in test [1] is recorded as 35.4%.
Regarding `CCCCN(CCCC)C(=O)Nc1ccccc1C` [1,1-di-(n-butyl)-3-(2-methylphenyl)urea, 1,1-Di-(n-butyl)-3-(2-methylphenyl)urea], the “% Inhibition” value in test [1] is 61.8%. Moreover, the “Result (inhibition of cholesterol absorption: lowering of either serum cholesterol or liver cholesterol relative to control rats)” value in the test with cholesterol absorption is given as “Active”.
For `CCCCN(CCCC)C(=O)Nc1ccc(C)c(C)c1` [1,1-Di-(n-butyl)-3-(3,4-dimethylphenyl)urea], the “% Inhibition” value in test [1] came out at 49.2%.
